# Experimental data taken from US8835605B2, “Uses of cancer-targeting peptides in cancer diagnosis” (Academia Sinica, priority 2009, dated 2014).
# Columns and labels:
# [1] = test system: BT483 breast cancer xenografts; test: In vivo binding (homing) of test phages to breast cancer xenografts, phage recovery from tissues; design: species or system SCID mice; conditions: heart, lung; for recovery rates of phage from tumor tissues compared with normal organs: 10^9 pfu i.v., tumor vs brain, FIG. 1
# Procedure: SCID mice were injected subcutaneously (s.c.) in the dorsolateral flank with 1×10^7 BT483 cells to induce breast cancer xenografts. The mice bearing xenograft tumors at a size of around 300 mm^3 were administered intravenously (i.v.) with one of the five test phages mentioned in Example 1 above (10^9 pfu) or a control phage. After perfusion, xenograft tumors and organs (i.e., brain, heart, and lung) were removed from each mouse and homogenized. The phages bound to each tissue sample were eluted, recovered using ER2738 bacterial cells as the host, and titered on IPTG/X-Gal agar plates, following the methods described in Lee et al., Cancer Res. 67:10958-10965 (2007) and Lo et al., Mol. Cancer. Ther 7:579-589 (2008).
# [2] = test system: cancer cells in the tissue samples (PC90 binding); test: Peptide competition assay on cancer tissue samples; design: species or system human; conditions: peptide 100 ng/ml with PC90 10^9 pfu
# Procedure: (§1) Fresh breast cancer tissue samples were obtained from twenty patients having mammary infiltrating ducal carcinoma. Each of the tissue samples was sliced to 4 μm and fixed in 1% paraformaldehyde. The sliced tissue samples were then incubated with PC90 or a control phage. After being washed by PBS containing […] (PBST0.1), the samples were incubated with an anti-M13 mouse mAb (Amersham Biosciences, Piscataway, N.J., USA) for 1 hour at room temperature, washed again with PBST0.1, and the immunoreactivity of each sample was determined using a biotin-free super sensitive polymer-HRP detection system (Biogenex, San Ramon, Calif., USA), following the procedures described in Lee et al. (2004) and Lo et al. The slides, to which the tissue samples were attached, were counterstained with hematoxylin, mounted with Aquatex (Merck, Dannstadt, Germany), and examined by light microscopy. The percentage of the positively stained cells was determined following a method described in Hall et al., J. Pathol. 172:1-4 (1994).
# The cancer targeting activity of PC90 was confirmed by a peptide competition assay, in which the cancer tissue samples were incubated with (1) the synthetic peptide (100 ng/ml) SMDPFLFQLLQL (SEQ ID NO:5) (SP90) and PC90 (10^9 pfu) or (2) the control peptide (100 ng/ml) RLLDTNRPLLPY (SEQ ID NO:6; see Lee et al., Cancer Res. 64:8002-8008, 2004) and PC90. […]
# [3] = test system: breast tumor xenografts (PC90 binding); test: In vivo competition: peptide co-injected with PC90, immunostaining of tumor tissues; design: species or system mice; conditions: 100 μg peptide co-injected with PC90
# Procedure: SP90 was co-administered to test its ability of blocking PC90 from binding to the tumor tissues. Briefly, 100 μg SP90 or the control peptides described above were co-injected with PC90 to mice bearing breast tumor xenografts. The normal organs and tumor tissues were removed and fixed in Bouin's solution (Sigma, Mo., USA). After fixation, the samples were embedded in paraffin blocks, sliced to sections, and the sections were deparaffinized, rehydrated, and subjected to immunostaining using the mouse anti-M13 mAb described in Example 1 above.
# [4] = test system: breast cancer tissue samples (mammary infiltrating ducal carcinoma); test: Immunostaining of patient breast cancer biopsy samples with phage; design: species or system human; conditions: biopsy samples from twenty patients; anti-M13 immunostaining
# Procedure: as §1
sequence,measurement,setting,value
EATNSHGSRTMG (SEQ ID NO: 2) [PC65],recovery rates of phage from tumor tissues compared with normal organs,[1],much higher
QLEFYTQLAHLI (SEQ ID NO: 4) [PC82],recovery rates of phage from tumor tissues compared with normal organs,[1],much higher
QNIYAGVPMISF (SEQ ID NO: 1) [PC34],recovery rates of phage from tumor tissues compared with normal organs,[1],much higher
"RLLDTNRPLLPY (SEQ ID NO:6) [control peptide, synthetic control peptide, see Lee et al., Cancer Res. 64:8002-8008, 2004, reference compound]",competition against PC90 for binding to cancer cells in tissue samples,[2],not
same,inhibition of PC90 binding to the tumor tissues (words),[3],did not exhibit any inhibitory activity
"SMDPFLFQLLQL (SEQ ID NO:5) [SP90, synthetic peptide …]",competition against PC90 for binding to cancer cells in tissue samples,[2],competed against PC90 for binding to the cancer cells
same,inhibition of PC90 binding to the tumor tissues,[3],97%
same,inhibition of PC90 binding to the tumor tissues (words),[3],significantly inhibited
SMDPFLFQLLQL (SEQ ID NO: 5) [PC90],recovery rates of phage from tumor tissues compared with normal organs,[1],much higher
same,targeting of tumor xenografts and normal organs,"[1]; i.v., tumor xenografts vs brain",bound to cancer cells in the tumor xenografts but not to normal organs
same,patients determined as carrying breast cancer cells,[4],18 out of the 20
TVSWSTTGRIPL (SEQ ID NO: 3) [PC73],recovery rates of phage from tumor tissues compared with normal organs,[1],much higher
